Assay results: patent US7138140B2, “Suplatast tosilate crystals” (Taiho Pharmaceutical Co., Ltd., priority 2001, dated 2006)
One block for each compound: values may come before it.

Key:
Assay type in all cases: physicochemical
[1] = Measurement of an optically active substance ratio (chiral stationary phase column); details: p-toluenesulfonate; for Optically active substance ratio ((+)/(−)): crystals, Chiralcel OD-H column; for Optically active substance ratio of the suplatast tosilate in the mother liquor: mother liquor after crystallization
Method: [Test 1] Measurement of an Optically Active Substance Ratio
The optically active substance ratio of each of the suplatast tosilate crystals of the present invention obtained in Examples 1 to 3, and the suplatast tosilate first crystals obtained in Comparative Examples 1 to 3 was measured using a chiral stationary phase column (“Chiralcel OD-H”, 4.6 mm×25 cm, product of Daicel Chemical Industries) with n-hexane ethanol-trifluoroacetic acid-diethylamine (750:250:5:1) as a mobile phase.
The optically active substance ratio of the suplatast tosilate in the mother liquor in each of Examples and Comparative Examples was measured as described above. The ratio in Example 1 to 6 was from 0.99 to 1.01, while it was 0.57 in Comparative Example 1, 0.87 in Comparative Example 2, and 0.42 in Comparative Example 3. Accordingly, the invention crystal can be recovered again from the mother liquor, while the first crystal cannot be recovered from the mother liquor. Such a phenomenon owes to optical enrichment phenomenon typically observed upon formation of the first crystal.

[2] = Heat Stability Test (60° C., 3 months, glass air-tight container); details: for Decomposition product (wt. %) formed, Lot 1: Lot 1, p-toluenesulfonate
Method: [Test 4] Heat Stability Test
The invention crystals of suplatast tosilate obtained in accordance with the process of Example 1 and commercially available suplatast tosilate first crystals, each 3.6 g, were stored at 60° C. for 3 months in a glass air-tight container and the formation amount and powder X-ray diffraction of a decomposition product ((±)-4-(3-ethoxy-2-hydroxypropoxy) aniline derivative) were measured to investigate heat storage stability.

[3] = Hygroscopicity Test 1 (storage at 25° C., 75% RH, time-dependent weight change); details: relative humidity 75%, FIG. 4
Method: FIG. 4 is a graph illustrating a water content increase, at 25° C. and relative humidity of 75%, of the invention crystal of suplatast tosilate (Example 1) suplatast tosilate first crystal (commercially available product) and suplatast tosilate second crystal (Comparative Example 4).
[Test 2] Hygroscopicity Test 1
In a dessicator (adjusted to 75% RH) having a saturated aqueous solution of sodium chloride charged therein, 1.0 g of each of the suplatast tosilate crystals of the invention obtained in Example 1, commercially available suplatast tosilate first crystals and the suplatast tosilate second crystals obtained in Comparative Example 4 were stored at 25° C. and a time-dependent weight change was measured.

[4] = Hygroscopicity Test 2 (storage at 40° C., relative humidity 50%, 14 days); details: for Change in appearance on storage: p-toluenesulfonate
Method: [Test 3] Hygroscopicity Test 2
Each of the suplatast tosilate crystals of the invention obtained in Example 1, and the second crystals obtained in accordance with the process of Comparative Example 4 (each, 0.5 g) were stored at 40° C. and relative humidity of 50% for 14 days, followed by observation of their appearance, powder X-ray diffraction and differential scanning calorimetry (DSC) in order to investigate storage stability.

[5] = 2 months, Lot 2, p-toluenesulfonate
[6] = 2 months, Lot 3, p-toluenesulfonate
[7] = 3 months, Lot 2, p-toluenesulfonate
[8] = 3 months, Lot 3, p-toluenesulfonate

SMILES: CCOCC(O)COc1ccc(NC(=O)CC[S+](C)C)cc1.Cc1ccc(S(=O)(=O)[O-])cc1 (racemic) [Comparative Example 1, (±)-[2-[4-(3-ethoxy-2-hydroxypropoxy)phenylcarbamoyl]ethyl] dimethylsulfonium p-toluenesulfonate]
- Optically active substance ratio ((+)/(−)) [1]: 1.09
- Optically active substance ratio of the suplatast tosilate in the mother liquor [1]: 0.57

SMILES: CCOCC(O)COc1ccc(NC(=O)CC[S+](C)C)cc1.Cc1ccc(S(=O)(=O)[O-])cc1 (racemic) [Comparative Example 2, (±)-[2-[4-(3-ethoxy-2-hydroxypropoxy)phenylcarbamoyl]ethyl] dimethylsulfonium p-toluenesulfonate]
- Optically active substance ratio ((+)/(−)) [1]: 0.97
- Optically active substance ratio of the suplatast tosilate in the mother liquor [1]: 0.87

SMILES: CCOCC(O)COc1ccc(NC(=O)CC[S+](C)C)cc1.Cc1ccc(S(=O)(=O)[O-])cc1 (racemic) [Comparative Example 3, (±)-[2-[4-(3-ethoxy-2-hydroxypropoxy)phenylcarbamoyl]ethyl] dimethylsulfonium p-toluenesulfonate]
- Optically active substance ratio ((+)/(−)) [1]: 0.94
- Optically active substance ratio of the suplatast tosilate in the mother liquor [1]: 0.42

SMILES: CCOCC(O)COc1ccc(NC(=O)CC[S+](C)C)cc1.Cc1ccc(S(=O)(=O)[O-])cc1 (racemic) [Example 1, (±)-[2-[4-(3-ethoxy-2-hydroxypropoxy)phenylcarbamoyl]ethyl] dimethylsulfonium p-toluenesulfonate]
- Optically active substance ratio ((+)/(−)) [1]: 1.00

SMILES: CCOCC(O)COc1ccc(NC(=O)CC[S+](C)C)cc1.Cc1ccc(S(=O)(=O)[O-])cc1 (racemic) [Example 2, (±)-[2-[4-(3-ethoxy-2-hydroxypropoxy)phenylcarbamoyl]ethyl] dimethylsulfonium p-toluenesulfonate]
- Optically active substance ratio ((+)/(−)) [1]: 1.00

SMILES: CCOCC(O)COc1ccc(NC(=O)CC[S+](C)C)cc1.Cc1ccc(S(=O)(=O)[O-])cc1 (racemic) [second crystal, (±)-[2-[4-(3-ethoxy-2-hydroxypropoxy)phenylcarbamoyl]ethyl] dimethylsulfonium p-toluenesulfonate]
- Change in appearance on storage [4]: showed deliquescence after storage for one week

Second part, led by results:

- Optically active substance ratio ((+)/(−)) [1]: 1.00
SMILES: CCOCC(O)COc1ccc(NC(=O)CC[S+](C)C)cc1.Cc1ccc(S(=O)(=O)[O-])cc1 (racemic) [Example 3, (±)-[2-[4-(3-ethoxy-2-hydroxypropoxy)phenylcarbamoyl]ethyl] dimethylsulfonium p-toluenesulfonate]

- Optically active substance ratio ((+)/(−)) [1]: around 1.00
SMILES: CCOCC(O)COc1ccc(NC(=O)CC[S+](C)C)cc1.Cc1ccc(S(=O)(=O)[O-])cc1 (racemic) [Example 6, (±)-[2-[4-(3-ethoxy-2-hydroxypropoxy)phenylcarbamoyl]ethyl] dimethylsulfonium p-toluenesulfonate]

- Decomposition product (wt. %) formed, Lot 1 ([2]; 1 month): 0.1 wt. %
- Decomposition product (wt. %) formed, Lot 2 ([2]; 1 month, Lot 2): 0.0 wt. %
- Decomposition product (wt. %) formed, Lot 3 ([2]; 1 month, Lot 3): 0.0 wt. %
- Decomposition product (wt. %) formed, Lot 1 ([2]; 2 months): 1.1 wt. %
- Decomposition product (wt. %) formed, Lot 2 [2, 5]: 0.7 wt. %
- Decomposition product (wt. %) formed, Lot 3 [2, 6]: 0.5 wt. %
- Decomposition product formed after 3-month storage (over the lots) ([2]; 3 months): about 1.7 wt. %
- Decomposition product (wt. %) formed, Lot 1 ([2]; 3 months): 2.1 wt. %
- Decomposition product (wt. %) formed, Lot 2 [2, 7]: 1.5 wt. %
- Decomposition product (wt. %) formed, Lot 3 [2, 8]: 1.4 wt. %
SMILES: CCOCC(O)COc1ccc(NC(=O)CC[S+](C)C)cc1.Cc1ccc(S(=O)(=O)[O-])cc1 (racemic) [First crystal, (±)-[2-[4-(3-ethoxy-2-hydroxypropoxy)phenylcarbamoyl]ethyl] dimethylsulfonium p-toluenesulfonate]

- Change in appearance on storage [4]: almost free from a change in appearance
- Decomposition product (wt. %) formed, Lot 1 ([2]; 1 month): 0.0 wt. %
- Decomposition product (wt. %) formed, Lot 2 ([2]; 1 month, Lot 2): 0.0 wt. %
- Decomposition product (wt. %) formed, Lot 3 ([2]; 1 month, Lot 3): 0.0 wt. %
- Decomposition product (wt. %) formed, Lot 1 ([2]; 2 months): 0.0 wt. %
- Decomposition product (wt. %) formed, Lot 2 [2, 5]: 0.0 wt. %
- Decomposition product (wt. %) formed, Lot 3 [2, 6]: 0.0 wt. %
- Decomposition product after 3 months (in words) ([2]; 3 months): no decomposition product appeared
- Decomposition product (wt. %) formed, Lot 1 ([2]; 3 months): 0.0 wt. %
- Decomposition product (wt. %) formed, Lot 2 [2, 7]: 0.0 wt. %
- Decomposition product (wt. %) formed, Lot 3 [2, 8]: 0.0 wt. %
SMILES: CCOCC(O)COc1ccc(NC(=O)CC[S+](C)C)cc1.Cc1ccc(S(=O)(=O)[O-])cc1 (racemic) [Invention crystal, (±)-[2-[4-(3-ethoxy-2-hydroxypropoxy)phenylcarbamoyl]ethyl] dimethylsulfonium p-toluenesulfonate]
- Hygroscopicity (water content increase) [3]: lower hygroscopicity than each of the first crystal and second crystal
- Change in powder X-ray diffraction peaks and DSC on storage [4]: almost free from a change in powder X-ray diffraction peaks and in DSC
